According to PMC12610274, “Identification of Marrubiin as a Cathepsin C Inhibitor for Treating Rheumatoid Arthritis” (Molecules, 2025):

What was measured:
CTSC [1] = target: T1, CTSC (Mus musculus, UniProt P97821); test: CTSC activity in blood and bone marrow of mice; assay type: in vivo, C57BL/6 mice; conditions: 30 mg/kg daily gavage, 7 days
T1 construct: from tissue; host or cells: mouse blood and bone marrow lysates
Description: A total of 25 C57BL/6 mice (6–8 weeks old, weighing approximately 20 g, with equal numbers of males and females) were randomly divided into five groups. Mice in the compound-treated groups were orally administered the compound once daily at doses of 0.3, 3, and 30 mg/kg for 7 consecutive days. […] Mice in the normal group were given an equal volume of normal saline at the same time points. The body weight, death rate, and behavior were observed and recorded daily for one week. After 7 days, bone marrow and blood samples were collected from the mice and lysed using 8% Triton X-100 buffer. The lysates were stored at −20 °C until testing. The activity assays for CTSC and NSPs were performed as described above. The mice were anesthetized and the tissues were taken for H&E staining.

PR3 = target: T2, PR3 (Homo sapiens, UniProt P24158); test: Recombinant NSPs isolated enzyme assay, PR3; assay type: biochemical; conditions: read-out: PR3 Enz (IC50: μM)
T2 construct: purchased MedChemExpress
Excerpt: (§1) The protocol for evaluating the inhibitory potency of compounds against other cathepsins referred to the CTSC activity assay. Recombinant human CTSB, CTSL, CTSS and CTSK for testing were also purchased from R&D Systems Biotechnology Company. Recombinant human Cat G, NE, and PR3 For testing were purchased from MedChemExpress. A multi-functional microplate reader was used to measure the absorption of Z-Leu-Arg-AMC at excitation/emission wavelengths of 380/460 nm to assess the activity changes of CTSB and CTSL, while the absorption of MCA-Arg-Pro-Lys-Pro-Val-Glu-NVAL-Trp-Arg-Lys(DNP)-NH2 at 320/405 nm was measured to evaluate the activity changes of CTSS and CTSK. Different assay buffers were prepared for diluting samples and measuring the activities of specific NSPs: a buffer containing 50 mM Tris and 750 mM NaCl (pH 7.4) was used for NE and PR3; a buffer containing 50 mM Tris, 750 mM NaCl, 5 mM EDTA (pH 7.4) was used for Cat G; and a buffer containing 25 mM MES, 50 mM NaCl, 5 mM DTT (pH 6.0) was used for CTSC. Synthetic substrates were employed to assess the activities of NSPs and CTSC: H-Gly-Arg-AMC for CTSC, N-MeSuc-Ala-Ala-Pro-Val-pNA for NE, aminobenzoyl-Val-Ala-Asp-Cys-Ala-Asp-Gln-ethylenediamine 2,4-dinitrophenyl for PR3, and N-Suc-Ala-Ala-Pro-Phe-pNA for Cat G. Each group of tests was independently repeated at least 3 times, and IC50 values were calculated using SPSS 10.0.

CTSC [2] = target: CTSC (Homo sapiens, UniProt P53634); test: Cellular thermal shift assay (CETSA) in U937 cells; assay type: binding; parameters: endogenous in cells; host or cells: U937; conditions: DMSO control 49 °C
Description: (§2) The Western blot experiments in this study were performed as described below. Cells in the logarithmic growth phase were collected in appropriate numbers according to different experimental purposes. After being thoroughly washed with phosphate-buffered saline and centrifuged, the cell pellets were resuspended in phosphate-buffered saline to obtain single-cell suspensions. Cells were fully lysed using RIPA buffer (Beyotime, P0013B) supplemented with EDTA-free protease and phosphatase inhibitor (Abcam, ab201120). Total cellular protein solutions were obtained after centrifugation to remove cell debris. The isolated proteins were quantified using the BeyoBCA protein assay kit (Beyotime, P0399M) following the operational protocol. The quantified protein samples were thoroughly mixed with protein loading buffer, boiled on a dry bath for 5 min, and then cooled to room temperature for Western blot analysis. […] Finally, enhanced chemiluminescent horseradish peroxidase substrate (Tanon Science & Technology Co., Ltd., Shanghai, China, 180-506) was used to visualize protein bands on a ChemiDoc XRS system (Bio-Rad Laboratories, Inc., Hercules, CA, USA), and the protein bands were quantified using Image Lab analysis software (Version 6.1) (Bio-Rad). […]

NSPs = test: Stability (protein level) of NSPs in U937 cells, Western blot, NSPs together; assay type: cell-based, human; conditions: U937, 10 μM, 24 h
Description: as §2

NE = target: T3, NE (Homo sapiens, UniProt P08246); test: Recombinant NSPs isolated enzyme assay, NE; assay type: biochemical; conditions: read-out: NE Enz (IC50: μM)
T3 construct: purchased MedChemExpress
Excerpt: as §1

CTSS = target: T4, CTSS (Homo sapiens, UniProt P25774); test: Human recombinant cathepsins isolated enzyme assay, CTSS; assay type: biochemical; conditions: read-out: CTSS Enz (IC50: μM)
T4 construct: purchased R&D Systems
Excerpt: as §1

CTSC (Homo sapiens, UniProt P53634), sequence (P53634 25-463): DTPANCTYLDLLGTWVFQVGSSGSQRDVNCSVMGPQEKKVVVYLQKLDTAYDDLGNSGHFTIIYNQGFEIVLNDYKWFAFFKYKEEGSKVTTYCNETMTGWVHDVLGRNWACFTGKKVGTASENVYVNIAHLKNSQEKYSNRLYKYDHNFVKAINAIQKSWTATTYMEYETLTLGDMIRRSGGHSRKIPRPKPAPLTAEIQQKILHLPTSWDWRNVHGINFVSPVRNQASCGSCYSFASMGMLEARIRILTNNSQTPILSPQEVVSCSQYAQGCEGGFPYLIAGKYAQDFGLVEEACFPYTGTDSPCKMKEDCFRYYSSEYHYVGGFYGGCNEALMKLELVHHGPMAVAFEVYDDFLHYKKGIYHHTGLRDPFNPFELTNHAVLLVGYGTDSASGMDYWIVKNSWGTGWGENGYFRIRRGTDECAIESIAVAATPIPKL
T1 sequence (P97821 25-462): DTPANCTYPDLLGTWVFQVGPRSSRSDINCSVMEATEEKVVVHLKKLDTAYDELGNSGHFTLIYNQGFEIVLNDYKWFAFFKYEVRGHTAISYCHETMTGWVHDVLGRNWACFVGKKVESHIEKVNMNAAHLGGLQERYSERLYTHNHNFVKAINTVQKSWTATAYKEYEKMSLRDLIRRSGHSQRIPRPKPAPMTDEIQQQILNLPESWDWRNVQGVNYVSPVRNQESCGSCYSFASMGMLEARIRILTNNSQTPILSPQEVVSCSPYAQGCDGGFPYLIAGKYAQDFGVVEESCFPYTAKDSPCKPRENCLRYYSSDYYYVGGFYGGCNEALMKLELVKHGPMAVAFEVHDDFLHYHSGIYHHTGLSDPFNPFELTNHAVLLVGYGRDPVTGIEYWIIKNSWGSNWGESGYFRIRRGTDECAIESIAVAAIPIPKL
T3 sequence (P08246 30-267): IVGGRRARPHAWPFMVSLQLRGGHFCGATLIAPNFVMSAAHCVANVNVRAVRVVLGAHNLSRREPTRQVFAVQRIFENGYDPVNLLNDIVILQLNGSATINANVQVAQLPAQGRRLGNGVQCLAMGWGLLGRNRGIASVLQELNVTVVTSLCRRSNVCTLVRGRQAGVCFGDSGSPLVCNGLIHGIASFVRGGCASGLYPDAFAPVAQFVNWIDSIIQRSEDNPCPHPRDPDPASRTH
T4 sequence (P25774 115-331): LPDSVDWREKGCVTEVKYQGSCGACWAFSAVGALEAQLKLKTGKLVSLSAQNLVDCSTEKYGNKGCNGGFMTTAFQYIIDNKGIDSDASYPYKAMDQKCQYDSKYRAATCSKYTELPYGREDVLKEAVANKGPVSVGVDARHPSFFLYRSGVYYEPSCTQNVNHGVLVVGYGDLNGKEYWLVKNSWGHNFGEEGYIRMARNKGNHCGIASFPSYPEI
T2 sequence (P24158 28-256): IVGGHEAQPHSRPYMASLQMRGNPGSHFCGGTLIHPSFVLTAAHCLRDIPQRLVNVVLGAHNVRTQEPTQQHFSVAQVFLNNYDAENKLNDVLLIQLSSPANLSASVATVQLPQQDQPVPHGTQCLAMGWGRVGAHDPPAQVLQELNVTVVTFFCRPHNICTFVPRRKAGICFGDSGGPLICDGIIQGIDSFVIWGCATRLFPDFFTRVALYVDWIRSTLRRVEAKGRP

Structure (SMILES): C[C@@H]1C[C@H]2OC(=O)[C@@]3(C)CCC[C@@](C)([C@@H]23)[C@@]1(O)CCc1ccoc1 [Marrubiin, marrubiin]
- remaining activity rate of CTSC (CTSC [1]; blood): ~25.5%
- remaining activity rate of CTSC (CTSC [1]; bone marrow): approximately 15.5%
- IC50 (PR3): > 10 µM
- temperature at which significant CTSC degradation occurred (CTSC [2]; 10 μM): approximately 61 °C
- temperature at which significant CTSC degradation occurred (CTSC [2]; 20 μM): ~67 °C
- content of NSPs, % of the original level (NSPs): 75.4–87.8%
- IC50 (NE): > 10 µM
- IC50 (CTSS): > 5 µM
